# Measured values taken from patent US9884832B2 (priority 2011, dated 2018).
# Target: AM2 S31 (wild-type serine at position 31 in the M2 protein), influenza virus A/Udorn/72 (Influenza A virus, UniProt P0DOF5)
# Experiment: cell-based
# Conditions: 100 uM; Xenopus oocytes; activity range class
# AM2 S31 (wild-type serine at position 31 in the M2 protein), influenza virus A/Udorn/72, sequence (P0DOF5 whole entry, looked up): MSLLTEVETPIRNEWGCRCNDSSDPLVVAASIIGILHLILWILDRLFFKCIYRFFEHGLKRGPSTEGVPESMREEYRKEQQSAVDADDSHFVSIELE
row,SMILES,S31 OOcyte Inhibition at 100 uM (%)
1,"F[B-](F)(F)C[NH2+]C12CC3CC(CC(C3)C1)C2 [Example 204a, N-[(Trifluoro-4-boranyl)methyl]adamantan-1-aminium]",A ((A)=31-95%)

# Same assay, conditions: 100 uM; Xenopus oocytes; activity range class; read-out: S31 OOcyte Inhibition at 100 uM (%)
row,SMILES,inhibition at 100 µM [%]
1,"Cc1ccsc1CNC12CC3CC(CC(C3)C1)C2 [Example 76a, N-((3-methylthiophen-2-yl)methyl)adamantan-1-amine]",31 to 95
2,"Cc1cc(CNC23CC4CC(CC(C4)C2)C3)sc1Br [Example 77a, N-((5-bromo-4-methylthiophen-2-yl)methyl)adamantan-1-amine]",31 to 95
3,"Cc1ccc(-c2ccc(CNC34CC5CC(CC(C5)C3)C4)cc2)o1.Cl [Example 32a, N-(4-(5-Methylfuran-2-yl)benzyl)adamantan-1-amine hydrochloride]",0 to 30
4,"Cc1ncc(-c2ccc(CNC34CC5CC(CC(C5)C3)C4)s2)s1 [Example 154a, N-((5-(2-methylthiazol-5-yl)thiophen-2-yl)methyl)adamantan-1-amine]",0 to 30
5,"COc1ccc(C(C)NC23CC4CC(CC(C4)C2)C3)cc1 (stereo not shown) [Example 11a, N-(1-(4-methoxyphenyl)ethyl)adamantan-1-amine]",31 to 95
6,"Oc1cc(-c2ccccc2)ccc1CNC12CC3CC(CC(C3)C1)C2 [Example 47a, 4-(Adamantan-1-ylaminomethyl)-biphenyl-3-ol]",0 to 30
7,Fc1ccc(-c2nc(CNC34CC5CC(CC(C5)C3)C4)no2)cc1 [Example 163a],0 to 30
8,C(NC12CC3CC(CC(C3)C1)C2)c1noc(C2CC2)n1 [Example 166a],0 to 30
9,"c1csc(-c2nnc(CNC34CC5CC(CC(C5)C3)C4)s2)c1 [Example 151a, N-((5-(thiophen-2-yl)-1,3,4-thiadiazol-2-yl)methyl)adamantan-1-amine]",0 to 30
10,"CC(NC12CC3CC(CC(C3)C1)C2)c1ccc(C#N)s1 (stereo not shown) [Example 92a, 5-(1-(adamantan-1-ylamino)ethyl)thiophene-2-carbonitrile]",31 to 95
11,"COc1ccc2cc(CNC34CC5CC(CC(C5)C3)C4)[nH]c2c1 [Example 186a, N-((6-methoxy-1H-indol-2-yl)methyl)adamantan-1-amine]",0 to 30
12,"COc1ccsc1CNC12CC3CC(CC(C3)C1)C2 [Example 74a, Adamantan-1-yl-(3-methoxy-thiophen-2-ylmethyl)-amine]",31 to 95
13,Cc1ccc(CNC23CC4CC(CC(C4)C2)C3)o1 [Example 67a],31 to 95
14,"c1csc(-c2cc(CNC34CC5CC(CC(C5)C3)C4)no2)c1 [Example 142a, N-((5-(thiophen-2-yl)isoxazol-3-yl)methyl)adamantan-1-amine]",0 to 30
15,"c1ccc(-c2nc(CNC34CC5CC(CC(C5)C3)C4)cs2)cc1 [Example 132a, N-((2-phenylthiazol-4-yl)methyl)adamantan-1-amine]",0 to 30
16,"Cc1noc(C)c1-c1ccc(CNC23CC4CC(CC(C4)C2)C3)cc1 [Example 33a, N-(4-(3,5-Dimethylisoxazol-4-yl)benzyl)adamantan-1-amine]",0 to 30
17,"Cn1c(CNC23CC4CC(CC(C4)C2)C3)nc2ccccc21 [Example 180a, Adamantan-1-yl-(1-methyl-1H-benzoimidazol-2-ylmethyl)-amine]",0 to 30
18,"c1cnc2ccc(CNC34CC5CC(CC(C5)C3)C4)cc2c1 [Example 39a, Adamantan-1-yl-quinolin-6-ylmethyl-amine]",0 to 30
19,"c1coc(-c2ccc(CNC34CC5CC(CC(C5)C3)C4)cn2)c1 [Example 60a, N-((6-(furan-2-yl)pyridin-3-yl)methyl)adamantan-1-amine]",0 to 30
20,"Cc1nc(CNC23CC4CC(CC(C4)C2)C3)no1 [Example 96a, N-((5-methyl-1,2,4-oxadiazol-3-yl)methyl)adamantan-1-amine]",31 to 95
21,"c1nc(CNC23CC4CC(CC(C4)C2)C3)no1 [Example 73a, Adamantan-1-yl-[1,2,4]oxadiazol-3-ylmethyl-amine]",31 to 95

# Same assay, conditions: Table 1; 100 uM; Xenopus oocytes, pH 5.5, -20 mV; read-out: S31 OOcyte Inhibition at 100 uM (%)
row,SMILES,inhibition at 100 µM [%]
1,"c1cn2cc(CNC3C4CC5CC(C4)CC3C5)nc2s1 (stereo not shown) [Example 107, Adamantan-2-yl-imidazo[2,1-b]thiazol-6-ylmethyl-amine]",31 to 95
2,"c1cnc2sc(CNC34CC5CC(CC(C5)C3)C4)cc2c1 [Example 90, Adamantan-1-yl-thieno[2,3-b]pyridin-2-ylmethyl-amine]",0 to 30
3,"c1ccc2sc(CNC34CC5CC(CC(C5)C3)C4)cc2c1 [Example 88, Adamantan-1-yl-benzo[b]thiophen-2-ylmethyl-amine]",0 to 30
4,"c1cn2cc(CNC34CC5CC(CC(C5)C3)C4)nc2s1 [Example 86, Adamantan-1-yl-imidazo[2,1-b]thiazol-6-ylmethyl-amine]",31 to 95
5,"Oc1cc(OCc2ccccc2)ccc1CNC12CC3CC(CC(C3)C1)C2 [Example 57, 2-(Adamantan-1-ylaminomethyl)-5-benzyloxy-phenol]",31 to 95
6,"[O-][n+]1ccc(CNC23CC4CC(CC(C4)C2)C3)cc1 [Example 74, Adamantan-1-yl-(1-oxy-pyridin-4-ylmethyl)-amine]",0 to 30
7,"[O-][S+]1Cc2cc(CNC34CC5CC(CC(C5)C3)C4)sc2C1 (stereo not shown) [Example 85, Adamantan-1-yl-(5-oxo-5,6-dihydro-4H-5M-thieno[3,4-b]thiophen-2-ylmethyl)-amine]",0 to 30
8,"OCc1ccc(CNC23CC4CC(CC(C4)C2)C3)o1 [Example 77, [5-(Adamantan-1-ylaminomethyl)-furan-2-yl]methanol]",0 to 30
9,"c1ccc2[nH]c(CNC34CC5CC(CC(C5)C3)C4)nc2c1 [Example 92, Adamantan-1-yl-(1H-benzoimidazol-2-ylmethyl)-amine]",0 to 30
10,"NC(=O)c1ccc(CNC23CC4CC(CC(C4)C2)C3)cc1 [Example 18, 4-(Adamantan-1-ylaminomethyl)-benzamide]",0 to 30
11,"c1nc(-c2ccc(CNC34CC5CC(CC(C5)C3)C4)cc2)no1 [Example 40, Adamantan-1-yl-(4-[1,2,4]oxadiazol-3-yl-benzyl)-amine]",0 to 30
12,"CC1(C)CCC(NCc2ccc(O)cc2O)CC1 [Example 108, 4-[(4,4-Dimethyl-cyclohexylamino)-methyl]-benzene-1,3-diol]",31 to 95
13,"O=C(Oc1ccc(CNC23CC4CC(CC(C4)C2)C3)cc1)C1CC1 [Example 34, Cyclopropanecarboxylic acid 4-(adamantan-1-ylaminomethyl)-phenyl ester]",0 to 30
14,"c1ccc2[nH]c(CNC34CC5CC(CC(C5)C3)C4)cc2c1 [Example 93, Adamantan-1-yl-(1H-indol-2-ylmethyl)-amine]",0 to 30
15,"CC(C)(C)C1CCC(NCc2ccc(O)cc2O)CC1 (stereo not shown) [Example 109, 4-[(4-tert-Butyl-cyclohexylamino)-methyl]-benzene-1,3-diol]",31 to 95
16,"COc1ccc(CNC23CC4CC(CC(C4)C2)C3)cc1 [Example 16, Adamantan-1-yl-(4-methoxy-benzyl)-amine]",31 to 95
17,"c1cnn(-c2ccc(CNC34CC5CC(CC(C5)C3)C4)cc2)c1 [Example 35, Adamantan-1-yl-(4-pyrazol-1-yl-benzyl)-amine]",0 to 30
18,"NCc1ccc(CNC23CC4CC(CC(C4)C2)C3)cc1 [Example 13, Adamantan-1-yl-(4-aminomethyl-benzyl)-amine]",0 to 30

# Same assay, conditions: Table 3; 100 uM; Xenopus oocytes, pH 5.5, -20 mV; read-out: S31 OOcyte Inhibition at 100 uM (%)
row,SMILES,inhibition at 100 µM [%]
1,"c1c(CNC23CC4CC(CC(C4)C2)C3)noc1C1CCCCC1 [Example 32b, N-((5-cyclohexylisoxazol-3-yl)methyl)adamantan-1-amine]",0 to 30
2,"c1nc(CNC23CC4CC(CC(C4)C2)C3)sc1C1CC1 [Example 65b, Adamantan-1-yl-(5-cyclopropyl-thiazol-2-ylmethyl)-amine]",0 to 30
3,"Cc1nc(CNC23CC4CC(CC(C4)C2)C3)cs1 [Example 12b, N-((2-methylthiazol-4-yl)methyl)adamantan-1-amine]",31 to 95
4,"c1csc(-c2nc(CNC34CC5CC(CC(C5)C3)C4)cs2)c1 [Example 11b, N-((2-(thiophen-2-yl)thiazol-4-yl)methyl)adamantan-1-amine]",0 to 30
5,"FC(F)(F)Oc1ccc(-c2cc(CNC34CC5CC(CC(C5)C3)C4)no2)cc1 [Example 36b, N-((5-(4-(trifluoromethoxy)phenyl)isoxazol-3-yl)methyl)adamantan-1-amine]",0 to 30
6,"Fc1cccc(F)c1-c1cc(CNC23CC4CC(CC(C4)C2)C3)no1 [Example 38b, N-((5-(2,6-difluorophenyl)isoxazol-3-yl)methyl)adamantan-1-amine]",0 to 30
7,"CC(NC12CC3CC(CC(C3)C1)C2)c1ccc(C(C)(C)C)cc1 (stereo not shown) [Example 3b, N-(1-(4-(tert-butyl)phenyl)ethyl)adamantan-1-amine]",0 to 30
8,"Cc1ccc(-c2ccc(CNC34CC5CC(CC(C5)C3)C4)s2)o1 [Example 52b, N-((5-(5-Methylfuran-2-yl)thiophen-2-yl)methyl)adamantan-1-amine]",0 to 30
9,"CC(C)c1cc(CNC23CC4CC(CC(C4)C2)C3)no1 [Example 27b, N-((5-isopropylisoxazol-3-yl)methyl)adamantan-1-amine]",0 to 30
10,"c1sc(CNC23CC4CC(CC(C4)C2)C3)cc1C1CC1 [Example 48b, N-((4-Cyclopropylthiophen-2-yl)methyl)adamantan-1-amine]",0 to 30
11,"COc1ccccc1-c1ccc(CNC23CC4CC(CC(C4)C2)C3)nc1 [Example 69b, Adamantan-1-yl-[5-(2-methoxy-phenyl)-pyridin-2-ylmethyl]-amine]",0 to 30
12,"COc1ccc(Cc2nc(CNC34CC5CC(CC(C5)C3)C4)no2)cc1OC [Example 28b, N-((5-(3,4-dimethoxybenzyl)-1,2,4-oxadiazol-3-yl)methyl)adamantan-1-amine]",0 to 30
